Assay results reported in BigSolDB 2.1.

CC(CO)(CO)C(=O)O
solubility (mole fraction)
Details	in 1,4-dioxane	in MIBK	in cyclopentyl methyl ether	in ethyl acetate	in gamma-butyrolactone	in gamma-valerolactone	in n-butyl acetate
298.15 K	0.00778	0.0149	0.00164	0.00368	0.00637	0.00643	0.00173
303.15 K	0.00937	0.0164	0.00194	0.00388	0.00793	0.008	0.00199
308.15 K	0.0124	0.0172	0.00239	0.00447	0.00942	0.00913	0.00234
313.15 K	0.0147	0.0186	0.00276	0.00507	0.012	0.0107	0.00268
318.15 K	0.0178	0.0192	0.00329	0.00646	0.0148	0.0124	0.00294
323.15 K	0.0219	0.0202	0.00366	0.00745	0.0187	0.0146	0.00381
328.15 K	0.0258	0.022	0.00381	0.00824	0.0214	0.0183	0.00433
333.15 K	0.0334	0.0244	0.00433	0.0124	0.026	0.0218	0.00528
338.15 K	0.0365	0.0259	0.00501	0.0147	0.0315	0.0251	0.00572
343.15 K	0.041	0.0274	0.00598	–	0.0367	0.0305	0.00685
345.15 K	0.0442	–	–	–	0.0392	0.0324	–
348.15 K	0.0479	0.0288	0.00621	–	0.042	0.037	0.00763
350.15 K	0.0501	–	–	–	0.048	0.0386	–
353.15 K	0.0535	0.0296	0.00906	–	0.0529	0.0406	0.00902
